Reference: patent publication US5516887A, “Luteinizing hormone releasing hormone antagonist peptides” (Deghenghi; Romano, priority 1994, dated 1996)
Non-standard residues stand in square brackets, D forms with d. *: point of attachment. dPhe(4-Cl) = N[C@H](Cc1ccc(Cl)cc1)C(=O)O; d2Nal = N[C@H](Cc1ccc2ccccc2c1)C(=O)O; d3Pal = N[C@H](Cc1cccnc1)C(=O)O; Carbamoyl = NC(=O)*; iPr = CC(C)*

Legend:
plasma testosterone = test: Suppression of plasma testosterone in rats after i.m. injection; assay type: in vivo; details: 300 μg/kg i.m.
From the text: The effect of an LHRH antagonist peptide of Example 1 of the present invention was compared to the effect of "Antide", cf. A. Ljungqvist et al., Biochem. Biophys. Res. Comm., 148, 849-858 (1987)., an LHRH antagonist of the prior art. Both LHRH antagonists were intermuscularly injected into 6 rats at a dosage of 300 mcg/kg.

[1] = assay type: physicochemical
From the text: An aqueous solution of the peptide of Example 1 was mixed with an aqueous solution of sodium pamoate.

rats = test: Test for anaphylactoid properties in rats; assay type: in vivo; details: six rats, injected with 5 mg/kg, observed over a 24 hour period
Method: Six rats were utilized to test the LHRH antagonist peptide of Example 1 of the present invention for anaphylactoid properties. Each of the six rats was injected with 5 mg/kg of the test peptide.

Row | Substance | plasma testosterone, 0 hr (plasma testosterone) | plasma testosterone, 24 hr (plasma testosterone; 24 hr) | plasma testosterone, 48 hr (plasma testosterone; 48 hr) | solubility in water [1] | mortality or other signs of anaphylactoid reactions (rats) | effectiveness relative to Antide at 24 hour suppression of plasma testosterone (plasma testosterone; 24 hr) | effectiveness relative to Antide at 48 hours, suppression of plasma testosterone (plasma testosterone; 48 hr)
1 | Antide [reference compound] | 3.35 ± 2.51 | 0.78 ± 0.37 | 1.96 ± 0.95 | – | – | – | –
2 | Example 1: LHRH antagonist peptide SEQ ID NO.: 1: N-acetyl-D-3-(2-naphthyl)-Ala1, D-3-(4-chlorophenyl)-alanine2, D-3(3-pyridyl)-Ala3, D-6-carbamoyl lysine6, Nε-isopropyl-Lys8, D-Ala-NH2 at 10 (Ac-[d2Nal][dPhe(4-Cl)][d3Pal]SY[dK](Carbamoyl)LK(iPr)P[dA]-NH2) | 5.46 ± 3.32 | 0.067 ± 0.030 | 0.84 ± 0.28 | freely soluble in water | No mortality or other signs of anaphylactoid reactions were observed | more than about ten times as effective as Antide | more than twice as effective as Antide
3 | Example 2: LHRH antagonist peptide SEQ ID NO.: 2: as SEQ ID NO.: 1 at positions 1, 2, 3, 6, 8; position 9 is Pro-NHCH2 CH3 (Ac-[d2Nal][dPhe(4-Cl)][d3Pal]SY[dK](Carbamoyl)LK(iPr)P-NHEt; SMILES CCNC(=O)[C@@H]1CCCN1C(=O)[C@H](CCCCNC(C)C)NC(=O)[C@H](CC(C)C)NC(=O)[C@@H](CCCCNC(N)=O)NC(=O)[C@H](Cc1ccc(O)cc1)NC(=O)[C@H](CO)NC(=O)[C@@H](Cc1cccnc1)NC(=O)[C@@H](Cc1ccc(Cl)cc1)NC(=O)[C@@H](Cc1ccc2ccccc2c1)NC(C)=O) | – | – | – | water soluble | – | – | –
